Data published in patent publication US20140121370A1, “NOVEL METHOD FOR PREPARING CEFMENOXIME HYDROCHLORIDE COMPOUND” (Hainan Lingkang Pharmaceutical Co., Ltd., priority 2011, published 2014).
Structures can show the parent of a compound that is named as a salt.

Assay: Solubility of Cefmenoxime hydrochloride in organic solvents
Format: physicochemical
Description: According to the instant invention, after the treatment of step 1), these impurities can be separated from Cefmenoxime hydrochloride.
Treating Cefmenoxime hydrochloride crude directly with a good-poor solvent precipitation method can not achieve the desired purity.

CO/N=C(\C(=O)N[C@@H]1C(=O)N2C(C(=O)O)=C(CSc3nnnn3C)CS[C@H]12)c1csc(N)n1 [Cefmenoxime hydrochloride, (6R,7R)-7-[(Z)-2-(2-amino-thiazol-4-yl)-2-methoxyiminoacetylamino]-3-[[(1-methyl-1H-tetrazol-5-yl)-sulfanyl]methyl]-8-oxo-5-thia-1-azabicyclo[4.2.0]oct-2-ene-2-carboxylic acid hydrochloride (2:1)]
solubility in acetone (solvent acetone): almost insoluble
solubility in ethanol (solvent ethanol): almost insoluble
solubility in ethyl acetate (solvent ethyl acetate): almost insoluble
solubility in formamide (solvent formamide): soluble
solubility in methanol (solvent methanol): slightly soluble
